Measurements reported in US10799508B2, “Methods for treating cancer using HSP90 inhibitors” (AI Therapeutics, Inc., priority 2017, dated 2020).

Legend:
[1] = tested on: p-STAT1 in HCC-38 cells; assay: Western blot of IFN-γ-induced pSTAT1; assay type: cell-based, human
Experimental: (§1) FIG. 5. HCC-38 cells treated with IFN-γ alone or co-treated with ruxolitinib (5000 nM) or MPC-3100 (10-5000 nM) were analyzed by Western blot to determine protein expression levels of HSP70 and pSTAT1. β-Actin was used as a loading control.
Since IFN-γ stimulates the expression of its target genes, such as PD-L1, which is mediated via JAK/STAT-1 signaling, the human HCC-38 cell line was used to probe the mechanism for IFN-γ-induced PD-L1 expression.

[2] = tested on: PD-L1 cell surface expression in SK-MEL-28 cells; assay: Flow cytometry of IFN-γ-induced PD-L1 cell surface expression, SK-MEL-28; settings: SK-MEL-28, IFN-γ, MPC-3100 500 nM or 1000 nM, 48 h
Experimental: (§4) A) SK-MEL-28 and HCC-38 (both human lines) were treated with IFN-γ (50 ng/ml), MPC-3100 (500 nM or 1000 nM) or the combination for 48 h. B) EMT-6 and B16-F10 (both murine cell lines) were also treated with IFN-γ, MPC-3100 or the combination for 24 h. PD-L1 cell surface signals were analyzed by flow cytometry. Experiments were performed in duplicate and at least 2 independent times.
(§5) Two human cell lines were used (SK-MEL-28 and HCC-38 cells) and two murine cell lines were used (B16-F10, a melanoma cell line and EMT-6, a breast cancer cell line). All cells lines were treated with IFN-γ (50 ng/nl) and co-treated with MPC-3100 at the indicated concentrations for 48 h.

[3] = tested on: IFN-γ-induced PD-L1 expression in SK-MEL-28 cells; assay: 10-point dose response validation of IFN-γ-induced PD-L1 signal; assay type: cell-based, human; settings: SK-MEL-28, IFN-γ 50 ng/ml, 48 h, FIG. 2A-E
Experimental: FIG. 1A-D. Validation dose response curves of HSP90 inhibitors tested in the original screen. A) CNF2024; B) PF04928473; C) tanespimycin; D) HSP-990. SK-MEL-28 cells treated with IFN-γ and with the indicated HSP90 inhibitor at different concentrations. Cells were assayed for cell viability (square, % viability on left axis) and PD-L1 expression (circle, Z-score right axis) at 48 h after treatment of IFN-γ and/or HSP90 inhibitors. Quadruplicate wells were used for determination of cell viability and PD-L1 expression. Average values were plotted. […] Lysates were probed with anti PD-L1 antibody.
FIG. 2A-E. Dose response curves of 5 additional HSP90 inhibitors. A) STA-9090, B) CUDC-305, C) MPC-3100, D) XL-888 and E) TAS-116. SK-MEL-28 cells treated with IFN-γ (50 ng/ml) and with the indicated HSP90 inhibitor at different concentrations. Cells were assayed for cell viability (square, % viability on left axis) and PD-L1 expression (circle, Z-score right axis) at 48 h after treatment of IFN-γ and/or HSP inhibitors. Quadruplicate wells were used for determination of cell viability and PD-L1 expression. Average values were plotted.
After assessment for viability, plates were then prepared for immunostaining. Briefly, 16% paraformaldehyde (Electron Microscopy Sciences) was added to each well to a final concentration of 4%, for 10 minutes at room temperature. Following this time, the fix was aspirated and cells were washed 3 times with PBS. Cells were blocked using blocking solution (1% bovine serum albumin in PBS) for 30 minutes. After this time, the blocking reagent was aspirated and immunostaining reagent added. The immunostaining reagent consisted of a biotin conjugated-PD-L1 antibody (eBioscience) diluted in blocking buffer. Plates were sealed and kept at 4 C overnight. The following day, plates were washed 3 times with PBS followed by addition of a streptavidin-luciferase fusion protein (Invivogen) diluted in blocking buffer, for 1 h at room temperature. After this step, the plates were washed 3 times with PBS. After the final wash, PBS was aspirated and 30 uL of QUANTI-Luc™ (Invivogen) was added per well. Plates were immediately read on a plate reader (Victor 3V plate reader, 0.1s) and luciferase activity measured.
The raw PD-L1 intensity (the luciferase readout) corresponding to drug screen plates was normalized to blank plates containing only IFN-γ-treated wells, and the resulting ratio was used for the calculation of Z-scores.
These 4 HSP90 inhibitors were validated using the same experimental protocol employed above (using the SK-MEL-28 cells +/−IFN-γ in 384 well plates), with the only exception to the original assay design was that each drug was now tested in a 10-point dose response assay where the concentration of drug tested was 9.8-5000 nM (2 fold serial dilution). Cells were seeded and treated in quadruplicate. Viability was assessed after 48 h of treatment of four HSP 90 inhibitors and prior to harvesting the cells for testing PD-L1 signal, as described above.

[4] = read-out: maximum concentration (Cmax, geometric mean) in plasma; patients dosed at the recommended phase 2 dose; cited from earlier work
[5] = tested on: IFN-γ-induced PD-L1 expression in HCC-38 cells; assay: Western blot of IFN-γ-induced PD-L1 protein expression; assay type: cell-based, human; settings: for IFN-γ-induced PD-L1 expression: IFN-γ 50 ng/ml, 48 h, Western blot
Experimental: FIG. 3. […] Human HCC-38 cells treated with IFN-γ alone or co-treated with ruxolitinib (5000 nM) or MPC-3100 (10-5000 nM) for 48 h were analyzed by Western blot analysis to determine protein expression levels of PD-L1. Ruxolitinib served as a positive control for inhibiting JAK2. β-Actin was used as a loading control.

[6] = tested on: PD-L1 cell surface expression in EMT-6 cells; assay: Flow cytometry of IFN-γ-induced PD-L1 cell surface expression, EMT-6; settings: EMT-6 (murine), IFN-γ plus MPC-3100, flow cytometry
Experimental: as §4, §5

[7] = tested on: HSP70 expression in HCC-38 cells; settings: HCC-38 treated with MPC-3100, Western blot
Experimental: as §1

[8] = tested on: IDO expression in HCC-38 cells; settings: HCC-38, MPC-3100 1000 nM or 5000 nM, 48 h, Western blot
Experimental: Effect of HSP90 inhibitor MPC-3100 on IFN-γ-induced IDO protein levels. Human HCC-38 cells treated with IFN-γ alone or co-treated with ruxolitinib (5000 nM) or MPC-3100 (100, 1000 or 5000 nM) for 48 h. Lysates were analyzed by Western blot to determine protein expression levels of IDO.

[9] = tested on: PD-L1 cell surface expression in B16-F10 cells; assay: Flow cytometry of IFN-γ-induced PD-L1 cell surface expression, B16-F10; settings: B16-F10 (murine), IFN-γ plus MPC-3100, flow cytometry
Experimental: as §4, §5

[10] = tested on: pAkt in U87 cells; settings: U87, MPC-3100 500 or 1000 nM, 24 h, Western blot
Experimental: (§2) FIG. 7. […] U87 cells were treated with MPC-3100 (500 and 1000 nM) for 24 h and analyzed by Western blotting with the indicated antibodies. β-Actin was used as a loading control.
(§3) Lysates were then prepared and queried for protein expression using western blot analysis.

[11] = tested on: PD-L1 expression in U87 cells
Experimental: as §2, §3

[12] = tested on: PD-L1 cell surface expression in HCC-38 cells; assay: Flow cytometry of IFN-γ-induced PD-L1 cell surface expression, HCC-38; settings: HCC-38, IFN-γ, MPC-3100 500 nM or 1000 nM, 48 h
Experimental: as §4, §5

In the case of `C[C@H](O)C(=O)N1CCC(CCn2c(Sc3cc4c(cc3Br)OCO4)nc3c(N)ncnc32)CC1` [MPC-3100], the “concentrations blocking p-STAT1, fold lower than the Cmax at the recommended Phase 2 dose” value ([1]; HCC-38) is reported as “at least 10 fold”, the “IFN-γ-induced p-STAT1” value ([1]; HCC-38, MPC-3100 10-5000 nM, Western blot) is reported as “blocks” and the “IFN-γ-induced cell surface expression of PD-L1” value [2] is reported as “effectively inhibited”. The “concentration required to inhibit IFN-γ-induced PD-L1 expression compared with concentration required to affect cell proliferation” value [3] was “far lower”, the Cmax [4] was ~13 µM and the “IFN-γ-induced PD-L1 expression” value ([5]; HCC-38, MPC-3100 100 nM) was “reduced”. The “IFN-γ-induced PD-L1 expression” value ([5]; HCC-38, MPC-3100 1000 nM) was “completely abrogated”, the “concentrations eliciting immuno-modulatory activity toward PD-L1, fold lower than Cmax at RP2D” value ([5]; compared with plasma Cmax ~13 μM) was “at least 10 fold” and the “IFN-γ-induced cell surface expression of PD-L1” value [6] was “effectively inhibited”. The HSP70 expression [7] was “increase”, the “IFN-γ-induced IDO expression” value [8] was “inhibited” and the “IFN-γ-induced cell surface expression of PD-L1” value [9] was “effectively inhibited”. For the same compound, the pAkt [10] was “reduction”, the “concentrations inhibiting PD-L1 expression, fold lower than the therapeutic dose” value ([11]; U87) was ~10 fold and the “constitutive PD-L1 expression” value ([11]; U87, MPC-3100 500 or 1000 nM, 24 h, Western blot) was “attenuation”. For the same compound, the “IFN-γ-induced cell surface expression of PD-L1” value [12] was “effectively inhibited”.
